Measurements as given in US20120289574A1, “HYDRATE CRYSTALS” (AJINOMOTO CO., INC., priority 2008, published 2012).
Where two headings read alike, the source gives them in different places.

Columns and labels:
[1] = Water vapor adsorption/desorption test; type: physicochemical; conditions: water vapor adsorption/desorption curve, adsorption temperature 298 K
Excerpt: A water vapor adsorption/desorption curve was plotted for the (2R,4R) monatin monosodium salt hydrate crystals (A) obtained in Example 1. The measurement conditions were as follows. The measured values are given in FIG. 5. • Device: Automatic vapor adsorption measuring device BELSORP18 made by Bel Japan Inc. • Measurement method: Volumetric gas adsorption method
• Adsorbed gas: H2O • Air thermostat temperature (K): 353 • Adsorption temperature (K): 298 • Saturation vapor pressure (kPa): 3.169 • Adsorption cross-sectional area (nm^2): 0.125 • Maximum adsorption pressure (relative pressure P/PO): desorption: 0.90; adsorption: 0.95 • Minimum adsorption pressure (relative pressure P/PO): desorption: 0.10; adsorption: 0.05 • Equilibration period: 500 s

[2] = for Rate of decomposition over time into the decomposition product X (lactone) / Rate of decomposition over time into the decomposition product Y (lactam): storage 120° C., open vial, HPLC area ratio relative to monatin; for Comparison of decomposition rates ((b)/(a)), decomposition product X (lactone) / Comparison of decomposition rates ((b)/(a)), decomposition product Y (lactam): Comp. Ex. 1 (b) relative to Example 4 (a), 120° C.
Description: A 50 mg quantity of the crystals of Example 4 and an identical quantity of the crystals of Comparative Example 1 were placed in separate 4 mL vials and stored at a temperature of 120° C. During this storage, the vials were left open. Following storage periods of 3 hours, 7 hours, and 24 hours, 2 mg of sample was removed and the rate of decomposition of the samples was determined by HPLC. Specifically, decomposition product X was a lactone compound (RT=21 minutes) and decomposition product Y was a lactam compound (RT=26 minutes). The individual area ratios (percentages) were calculated relative to the area of monatin.

[3] = Sweetness intensity by panelists relative to 5 percent sucrose aqueous solution; type: in vivo; conditions: average of values provided by seven panelists relative to 5 percent sucrose aqueous solution
Excerpt: Sweetness intensity: 2,700-fold (average of values provided by seven panelists relative to 5 percent sucrose aqueous solution)

[4] = 24 hr, listed as Comparative Example 1

## NC(CC(O)(Cc1c[nH]c2ccccc12)C(=O)O)C(=O)[O-].[Na+] [Example 1, (2R,4R) Monatin Monosodium Salt Hydrate Crystals (A)]
[1]
  Most stable hydrate: trihydrate

## N[C@H](C[C@](O)(Cc1c[nH]c2ccccc12)C(=O)O)C(=O)[O-].O.[Na+] [Example 4, (2R,4R) Monatin Monosodium Salt Monohydrate Crystals (B)]
[2]; 0 hr
  Rate of decomposition over time into the decomposition product X (lactone): 0%
  Rate of decomposition over time into the decomposition product Y (lactam): 0%
[2]; 3 hr
  Rate of decomposition over time into the decomposition product X (lactone): 0.11%
  Rate of decomposition over time into the decomposition product Y (lactam): 0.11%
[2]; 7 hr
  Rate of decomposition over time into the decomposition product X (lactone): 0.23%
  Rate of decomposition over time into the decomposition product Y (lactam): 0.21%
[2]; 24 hr
  Rate of decomposition over time into the decomposition product X (lactone): 0.24%
  Rate of decomposition over time into the decomposition product Y (lactam): 0.38%
[3]
  Sweetness intensity: 2,700 fold

## (2R,4R) monatin monosodium salt 0.2 ethanolate [Comp. Ex. 1]
[2]; 3 hr
  Comparison of decomposition rates ((b)/(a)), decomposition product X (lactone): 30-fold
  Comparison of decomposition rates ((b)/(a)), decomposition product Y (lactam): 19-fold
  Rate of decomposition over time into the decomposition product X (lactone): 3.38%
  Rate of decomposition over time into the decomposition product Y (lactam): 2.08%
[2]; 7 hr
  Comparison of decomposition rates ((b)/(a)), decomposition product X (lactone): 21-fold
  Comparison of decomposition rates ((b)/(a)), decomposition product Y (lactam): 17-fold
  Rate of decomposition over time into the decomposition product X (lactone): 4.64%
  Rate of decomposition over time into the decomposition product Y (lactam): 3.63%
[2]; 24 hr
  Comparison of decomposition rates ((b)/(a)), decomposition product X (lactone): 27-fold
  Comparison of decomposition rates ((b)/(a)), decomposition product Y (lactam): 20-fold
  Rate of decomposition over time into the decomposition product X (lactone): 6.67%
  Rate of decomposition over time into the decomposition product Y (lactam): 7.46%
[2]; [4]
  Comparison of decomposition rates ((b)/(a)), decomposition product X (lactone): 27 fold
  Comparison of decomposition rates ((b)/(a)), decomposition product Y (lactam): 20 fold
[2]; 0 hr
  Rate of decomposition over time into the decomposition product X (lactone): 0%
  Rate of decomposition over time into the decomposition product Y (lactam): 0%
